Experimental data from patent US8691218B2, “Vermin extermination using lysozyme, salt or biological fragment thereof, or lysozyme-related peptide as an egg recognition pheromone” (National University Corporation Okayama University, priority 2007, dated 2014).

Tested on: Reticulitermes speratus workers (worker termites)
Assay: egg recognition activity: conveyance of coated mimetic eggs (glass beads) into the egg mass in a petri dish
Assay type: in vivo
Conditions: lysozyme samples tested on termites
Procedure: Egg recognition activities of a termite egg extract, lysozyme purified from the termite egg extract, a termite egg extract degraded by proteinase, egg white lysozyme, cellulase, a mixture of egg white lysozyme and cellulase, and 30% glycerin aqueous solution as a control were investigated by using Reticulitermes speratus workers (worker termites).
Each test samples was prepared as follows.
800 μL of ultrapure water was added to 400 mg of Reticulitermes speratus eggs in an Eppendorf tube, and homogenized, and subjected to ultrasonic treatment for 5 minutes, and centrifugation was performed at 15,000 rpm for 30 minutes. The supernatant was lyophilized, and 5.0 mg of the lyophilized powder was dissolved in 100 μL of 30% glycerin aqueous solution (termite egg extract). The termite egg extract prepared in the same manner as described above was purified by BioRex 70 (BioRad Laboratories, CA, USA) cation-exchange resin, and further, lysozyme fractions were isolated by Q-1 column chromatography (BioRad Laboratories, CA, USA) and Methyl HIC column chromatography (BioRad Laboratories, CA, USA), and 1.0 mg of lyophilized powder thereof was dissolved in 20 μL of 30% glycerin aqueous solution (lysozyme isolated from termite egg extract). […]

## lysozyme derived from chicken egg white: egg white lysozyme (SIGMA) dissolved in 30% glycerin aqueous solution
  egg recognition activity of termites: high activity
